# Experimental data taken from patent US8575382B2, “Low molecular weight pharmacological activity modulators” (“Ivy Pharm” LLC, priority 2009, dated 2013).
# Where two headings read alike, the source gives them in different places.
# Assays:
# [1] = tested on: A431 line human epidermoid carcinoma cells; test: Proliferative activity and death of A431 cells (cell count, propidium iodide flow cytofluorimetry); format: cell-based; details: for Proportion of dead cells / Total cells: A431; for effect on the proliferative activity of A431 cells (in words): summary of Table 2
# Method: The number of living and dead cells in a culture was determined after 24 and 48 hours.
# A431 line human epidermoid carcinoma cells, obtained from the All-Russian Cell Culture Collection (Russian Academy of Sciences Institute of Cytology, St. Petersburg).
# Cells are cultured in a CO2 incubator (New Brunswick Scientific) at +37° C. and with a CO2 content of 5%. Cells are grown in these conditions to a monolayer culture and are exposed to the action of the test compounds.
# The DMEM medium (OOO PanEko, Moscow) with the addition of gentamicin K (80 mg/l), L-glutamine (300 mg/l) and fetal serum (PAA, Austria) to a final concentration of 10%, is used for culturing cells. Cells are transferred to a medium with a reduced serum content of 0.5% 24 hours before commencing an experiment.
# The cells were then suspended by pipetting with an automatic pipette and were combined with the previously collected medium. Samples were centrifuged at room temperature for 5 min at 400 g, the supernatant was removed and the deposit was resuspended in pH 7.4 PBS phosphate-salt buffer.
# Propidium iodide was added to a suspension of cells to a concentration of 50 μg/ml 5-10 min before measuring in a Bruker ACR 1000 flow cytofluorimeter. This stain is able to penetrate through a damaged cell membrane, and stained cells are dead.
# [2] = Solubility of the crystalline coordination compound; format: physicochemical
# Method: [drawing 10] […] (1.811 mmole) of AgNO3, dissolved in the minimum amount of water, are added to a suspension of 300 mg (0.904 mmole) of Pd(2,2′-dipy)Cl2 in 15 ml of water. The mixture is acidified with 0.5 ml of concentrated HNO3, homogenized in an ultrasound bath for 15 min and filtered. […] (0.905 mmole) of L-cysteine (cys), dissolved in the minimum amount of water, are added to the filtrate. The reaction mixture is evaporated in air at room temperature. […] Yield 70-75%.
# [3] = tested on: A431 line human epidermoid carcinoma cells; test: Proliferative activity and death of A431 cells (cell count, propidium iodide flow cytofluorimetry); format: cell-based
# [4] = tested on: myocardium (30-minute LCA occlusion, 90-minute reperfusion)
# Method: The experiments were performed on male Wistar rats weighing 200-300 g (RAMN Rappolovo Breeding Centre, St. Petersburg) and male C57B mice weighing 25-30 g (B&K, Sollentuna, Sweden). The animals were maintained in a 12/12-hour light regime and received standard feed and drinking water ad libitum. All the experiments were conducted in accordance with the “Handbook on the care and use of laboratory animals” (USA National Institute of Health publication No. 85-23) and “Handbook on the experimental (preclinical) study of new pharmacological substances”.
# Initial anesthesia of rats was performed by intraperitoneal administration of etaminal sodium (Nembutal) in a single dose of 7 mg/100 g. The experiments were performed with artificial ventilation of the lungs AVL) via a tracheotomy (respiration rate—60/min, respiratory volume—3 ml/100 g of body weight). AVL was carried out with room air using a Vita-1 unit (PO Krasnogvardeyets, St. Petersburg). A breathing valve for small laboratory animals was used, allowing the dead space volume of the apparatus to be reduced and limiting accumulation of carbon dioxide in the flow system of the apparatus. Arterial pressure (AP) was measured during the experiment using a miniature pressure sensor (Baxter, USA) via a heparinized catheter inserted into the left common carotid artery. A median skin incision was made in the neck, with subsequent blunt separation of the tissues with forceps, for access to the trachea and carotid artery. An electrocardiogram (ECG) was recorded in the course of the experiment (Kardiotekhnika-EKG-8, ZAO Inkart, St. Petersburg) with standard leads, using subcutaneous needle electrodes 2 mm in diameter and 25 mm long. At the start of the experiment, the left femoral vein was catheterized for intravenous infusion of Nembutal with the object of maintaining anesthesia and also for the administration of test preparations and, at the end of the experiment, Evans blue.
# A previously described method was used to model ischemia-reperfusion of the myocardium. The heart was accessed via a thoracotomy in the fourth intercostal on the left. An L-shaped skin incision was made first, then the large and small pectoral muscles were separated layer by layer with an electrocoagulator, after which the intercostal muscles were separated and the pleura was exposed. The pericardium was then opened by a blunt method and, using the medial edge of the auricula of the left atrium on the left, and the cone of the pulmonary artery on the right, for guidance the location of the common trunk of the LCA was determined, and a polypropylene ligature for this was placed with the aid of an atraumatic needle (6-O, Cardiopoint, CV-301). Removal of the heart from the wound was avoided since, apart from causing mechanical trauma to the heart, such a manipulation inevitably leads to serious disturbances to the hemodynamics.
# An occluder was formed in order to create reversible ischemia of the myocardium: the ends of the ligature surrounding the coronary artery were led into the interior of a polyethylene tube 1 mm in diameter and 5-6 cm long (PE 40), after which occlusion of the left coronary artery (LCA) was achieved by moving the tube towards the heart, and reperfusion by moving it in the opposite direction. A clamp was applied to the tube with the object of maintaining occlusion for 30 minutes. The animals were located on a thermostatted operating table during the experiment; during this time, the body temperature of the animal was maintained in the range 37.5±0.5° C.
# 30-minute occlusion of the LCA with subsequent 90-minute reperfusion was used to create irreversible ischemic-reperfusion damage to the myocardium, which is a test for assessing cardioprotective effects.
# [5] = Table 2, age of culture 24 hours, cysteine […], C—Pd […], C—Pd:C […], EGF 200 ng/ml
# [6] = Table 2, age of culture 48 hours, cysteine […], C—Pd […], C—Pd:C […], EGF 200 ng/ml
# [7] = Table 2, age of culture 0 hours, cysteine […], C—Pd […], C—Pd:C […], EGF 200 ng/ml
# [8] = AG1478 0.75 μg/ml 15 min before EGF 200 ng/ml, 24 hours
# [9] = AG1478 0.75 μg/ml 15 min before EGF 200 ng/ml, 48 hours
# [10] = AG1478 1.0 μg/ml 15 min before EGF 200 ng/ml, 24 hours
# [11] = AG1478 1.0 μg/ml 15 min before EGF 200 ng/ml, 48 hours
# [12] = AG1478 2.5 μg/ml 15 min before EGF 200 ng/ml, 24 hours
# [13] = AG1478 2.5 μg/ml 15 min before EGF 200 ng/ml, 48 hours
# [14] = AG1478 5.0 μg/ml 15 min before EGF 200 ng/ml, 24 hours
# [15] = AG1478 5.0 μg/ml 15 min before EGF 200 ng/ml, 48 hours
compound,measurement,setting,value
"[Pd2(μ-S-L-Cys)(μ-S-L-CysH)(2,2′-dipy)2](NO3)3.4.5H2O [C—Pd]",Proportion of dead cells,[1]; [5],8%
same,Total cells,[1]; [5],32300 mL⁻¹
same,Proportion of dead cells,[1]; [6],12%
same,Total cells,[1]; [6],36100 mL⁻¹
same,effect on the proliferative activity of A431 cells (in words),[1],stimulates the proliferative activity
same,solubility,[2]; in acetone,virtually insoluble
same,solubility,[2]; in dichloromethane,virtually insoluble
same,solubility,[2]; in ethanol,less soluble
same,solubility,[2]; in water,readily soluble
same,Total cells,[3]; [7],10000 mL⁻¹
"COc1cc2ncnc(Nc3cccc(Cl)c3)c2cc1OC [AG1478, tyrphostin AG 1478]",Proportion of dead cells,[1]; [8],20%
same,Total cells,[1]; [8],48100 mL⁻¹
same,Proportion of dead cells,[1]; [9],25%
same,Total cells,[1]; [9],70800 mL⁻¹
same,Total cells,"[1]; AG1478 1.0 μg/ml 15 min before EGF 200 ng/ml, 0 hours",10000 mL⁻¹
same,Proportion of dead cells,[1]; [10],23%
same,Total cells,[1]; [10],47100 mL⁻¹
same,Proportion of dead cells,[1]; [11],23%
same,Total cells,[1]; [11],65700 mL⁻¹
same,Total cells,"[1]; AG1478 2.5 μg/ml 15 min before EGF 200 ng/ml, 0 hours",10000 mL⁻¹
same,Proportion of dead cells,[1]; [12],27%
same,Total cells,[1]; [12],39400 mL⁻¹
same,Proportion of dead cells,[1]; [13],30%
same,Total cells,[1]; [13],61100 mL⁻¹
same,Total cells,"[1]; AG1478 5.0 μg/ml 15 min before EGF 200 ng/ml, 0 hours",10000 mL⁻¹
same,Proportion of dead cells,[1]; [14],29%
same,Total cells,[1]; [14],6400 mL⁻¹
same,Proportion of dead cells,[1]; [15],41%
same,Total cells,[1]; [15],2100 mL⁻¹
same,Total cells,"[3]; AG1478 0.75 μg/ml 15 min before EGF 200 ng/ml, 0 hours",10000 mL⁻¹
Nc1ncnc2c1ncn2[C@@H]1O[C@H](CO)[C@@H](O)[C@H]1O [adenosine],disturbances of the heart rhythm or stopping of the heart,"[4]; rat, in vivo",No disturbances of the heart rhythm or stopping of the heart
same,"size of the infarct zone, % of the size of the anatomical risk zone","[4]; rats, adenosine 0.1 μmol/kg i.v. infusion 30 minutes before coronary occlusion (group 1)",64.7±3.47%
same,"size of the infarct zone, % of the size of the anatomical risk zone","[4]; rats, adenosine 0.25 μmol/kg i.v. 30 minutes before occlusion (group 2)",63.1±4.31%
same,"size of the infarct zone, % of the size of the anatomical risk zone","[4]; rats, adenosine 0.5 μmol/kg i.v. 30 minutes before occlusion (group 3)",62.7±4.11%
same,"size of the infarct zone, % of the size of the anatomical risk zone","[4]; rats, adenosine 1.0 μmol/kg i.v. 30 minutes before occlusion (group 4)",65.1±4.84%
same,"size of the infarct zone, % of the size of the anatomical risk zone","[4]; rats, adenosine 2.5 μmol/kg i.v. 30 minutes before occlusion (group 5)",60.9±5.10%
same,"size of the infarct zone, % of the size of the anatomical risk zone","[4]; rats, adenosine 5.0 μmol/kg i.v. 30 minutes before occlusion (group 6)",35.9±3.59%
same,"size of the infarct zone, % of the size of the anatomical risk zone","[4]; rats, adenosine 10.0 μmol/kg i.v. 30 minutes before occlusion (group 7)",32.7±3.21%
same,"size of the infarct zone, % of the size of the anatomical risk zone","[4]; rats, adenosine 25.0 μmol/kg i.v. 30 minutes before occlusion (group 8)",28.2±3.43%
same,"size of the infarct zone, % of the size of the anatomical risk zone","[4]; rats, adenosine 50.0 μmol/kg i.v. 30 minutes before occlusion (group 9)",26.5±2.87%
same,"reduction of the size of the infarct zone compared with the control, factor","[4]; rats, adenosine groups 6-9 (5.0-50.0 μmol/kg), control 63.8±3.32%",1.5-2.5
"N[C@@H](CS)C(=O)O [Cysteine, cysteine]",Proportion of dead cells,[1]; [5],11%
same,Total cells,[1]; [5],14700 mL⁻¹
same,Proportion of dead cells,[1]; [6],22%
same,Total cells,[1]; [6],23500 mL⁻¹
same,effect on the proliferative activity of A431 cells (in words),[1],no effect on stimulation of proliferative activity
same,Total cells,[3]; [7],10000 mL⁻¹
